Assay results taken from patent US20080096861A1, “Chemical Compounds” (SMITHKLINE BEECHAM CORPORATION, priority 2004, published 2008).
Like-named read-outs stand apart in the source and are kept apart here.

How the values were obtained:
CXCR4 receptor = target: T1, CXCR4 receptor (Homo sapiens, UniProt P61073); test: Functional FLIPR assay (block of SDF-1 alpha induced [Ca2+]i change); assay type: cell-based; conditions: HEK-293 cells, human CXCR4 BacMam and Gqi5 BacMam, read-out: Functional assay (pIC50) (converted)
T1 construct: expressed in transfected cells; host or cells: HEK-293 cells (stably expressing human macrophage scavenger receptor) transduced with human CXCR4 BacMam and Gqi5 BacMam
Procedure: Human embryonic kidney (HEK-293) cells were maintained and harvested as described above. Cells were plated in 96-well, black clear bottom, poly-lysine coated plates at a concentration of 40,000 cells per well in a final volume of 100 ul containing human CXCR4BacMam (MOI=25) and Gqi5 BacMam (MOI=12.5). The cells were incubated at 37° C., 5% CO2, 95% humidity for 24 h to allow for protein expression.
After the required incubation time the cells were washed once with 50 ul of fresh serum-free DMEM/F12 media containing probenicid. 50 ul of dye solution was then added to the cells (Calcium Plus Assay Kit Dye; Molecular Devices) was dissolved in 200 ml of the above probenicid/BSA containing media and incubated for 1 h. Cell plates were transferred to a Fluorometric Imaging Plate Reader (FLIPR). Upon addition the effect of the compounds on the change in [Ca^2+]i was examined to determine if the compounds were agonists or antagonists (ability to block SDF-1 alpha activity) at the CXCR4 receptor. IC50 values are determined and pKb values are calculated using the Leff and Dougall equation: KB═IC50/((2+([agonist]/EC50̂b)̂1/b−1) Where IC50 is that defined by the antagonist concentration-response curve [agonist)] is the EC80 concentration of agonist used EC50 is that defined by the agonist concentration-response curve b is the slope of the agonist concentration-response curve.

[1] = tested on: HIV-1 gp160 (HXB2 strain) mediated cell/cell fusion; test: Cell/cell fusion assay (HOS hCXCR4/hCCR5/hCD4/pHIV-LTR-luciferase cells with HEK-293 cells expressing HIV-1 tat, rev, gp160), luciferase readout; assay type: cell-based; conditions: Homo sapiens, HEK293, 24 h, read-out: Fusion assay (pIC50) (converted)
Source text: The complete coding sequences of HIV-1 tat (GenBank Accession No. X07861) and rev (GenBank Accession No. M34378) were cloned into pcDNA3.1 expression vectors containing G418 and hygromycin resistance genes, respectively. The complete coding sequence of the HIV-1 (HXB2 strain) gp160 envelope gene (nucleotide bases 6225-8795 of GenBank Accession No. K03455) was cloned into plasmid pCRII-TOPO. The three HIV genes were additionally inserted into the baculovirus shuttle vector, pFastBacMam1, under the transcriptional control of the CMV promoter. A construction of the pHIV-1 LTR containing mutated NFkB sequences linked to the luciferase reporter gene was prepared by digesting pcDNA3.1, containing the G418 resistance gene, with Nru I and Bam HI to remove the CMV promoter. LTR-luc was then cloned into the Nru I/Bam HI sites of the plasmid vector. Plasmid preparations were performed after the plasmids were amplified in Escherichia coli strain DH5-alpha. The fidelity of the inserted sequences was confirmed by double-strand nucleotide sequencing using an ABI Prism Model 377 automated sequencer.
Recombinant BacMam baculoviruses were constructed from pFastBacMam shuttle plasmids by using the bacterial cell-based Bac-to-Bac system. Viruses were propagated in Sf9 (Spodoptera frugiperda) cells cultured in Hink's TNM-FH Insect media supplemented with 10% (v/v) fetal bovine serum and 0.1% (v/v) pluronic F-68 according to established protocols.
Human osteosarcoma (HOS) cells that naturally express human CXCR4 were transfected with human CCR5, human CD4 and the pHIV-LTR-luciferase plasmid using FuGENE 6 transfection reagent. Single cells were isolated and grown under selection condition in order to generate a stable HOS (hCXCR4/hCCR5/hCD4/pHIV-LTR-luciferase) clonal cell line. The cells were maintained in Dulbeccos modified Eagles media supplemented with 10% fetal calf serum (FCS), G418 (400 ug/ml), puromycin (1 ug/ml), mycophenolic acid (40 ug/ml), xanthine (250 ug/ml) and hypoxanthine (13.5 ug/ml) to maintain a selection pressure for cells expressing the LTR-luciferase, hCCR5 and hCD4, respectively. Human embryonic kidney (HEK-293) cells stably transfected to express the human macrophage scavenging receptor (Class A, type 1; GenBank Accession No. D90187), were maintained in DMEM/F-12 media (1:1) supplemented with 10% FCS and 1.5 ug/ml puromycin. The expression of this receptor by the HEK-293 cells enhances their ability to stick to tissue culture treated plasticware.
HEK-293 cells were harvested using enzyme-free cell dissociation buffer. The cells were resuspended in DMEM/F-12 media supplemented with 10% FCS and 1.5 ug/ml and counted. Tranductions were performed by direct addition of BacMam baculovirus containing insect cell media to cells. The cells were simultaneously transduced with BacMam baculovirus expressing HIV-1 tat, HIV-1 rev and HIV-1 gp160 (from the HXB2 HIV strain). Routinely an MOI of 10 of each virus was added to the media containing the cells. 2 mM butyric acid was also added to the cells at this stage to increase protein expression in transduced cells. The cells were subsequently mixed and seeded into a flask at 30 million cells per T225. The cells were incubated at 37° C., 5% CO2, 95% humidity for 24 h to allow for protein expression.
HEK and HOS cells were harvested in DMEM/F-12 media containing 2% FCS and DMEM media containing 2% FCS, respectively, with no selection agents added. Compounds were plated as 1 ul spots in 100% DMSO on a 96-well CulturPlate plates. HOS cells (50 ul) were added first to the wells, followed immediately by the HEK cells (50 ul). The final concentration of each cell type was 20,000 cells per well. Following these additions, the cells were returned to a tissue culture incubator (37° C.; 5% CO2/95% air) for an additional 24 h.
Following the 24 h incubation, total cellular luciferase activity was measured using the LucLite Plus assay kit (Packard, Meridien, Conn.). […]

[2] = Compound cytotoxicity in HOS cells in the absence of virus (CellTiter-Glo); assay type: cell-based; conditions: human, no virus, read-out: Cytotox (pIC50) (converted)
Procedure: Compounds were profiled against two HIV-1 viruses, the M-tropic (CCR5 utilizing) Ba-L strain and the T-tropic (CXCR4 utilizing) IIIB strain. Both viruses were propagated in human peripheral blood lymphocytes. Compounds were tested for there ability to block infection of the HOS cell line (expressing hCXCR4/hCCR5/hCD4/pHIV-LTR-luciferase) by either HIV-1 Ba-L or HIV-1 IIIB. Compound cytotoxicity was also examined in the absence of virus addition.
HOS cells (expressing hCXCR4/hCCR5/hCD4/pHIV-LTR-luciferase) were harvested and diluted in Dulbeccos modified Eagles media supplemented with 2% FCS and non-essential amino acid to a concentration of 60,000 cells/ml. The cells were plated into 96-well plates (100 ul per well) and the plates were placed in a tissue culture incubator (37° C.; 5% CO2/95% air) for a period of 24 h.
Subsequently, 50 ul of the desired drug solution (4 times the final concentration) was added to each well and the plates were returned to the tissue culture incubator (37° C.; 5% CO2/95% air) for 1 h. Following this incubation 50 ul of diluted virus was added to each well (approximately 2 million RLU per well of virus). The plates were returned to the tissue culture incubator (37° C.; 5% CO2/95% air) and were incubated for a further 96 h.
Following this incubation the endpoint for the virally infected cultures was quantified following addition of Steady-Glo Luciferase assay system reagent (Promega, Madison, Wis.). Cell viability or non-infected cultures was measured using a CellTiter-Glo luminescent cell viability assay system (Promega, Madison, Wis.). All luminescent readouts are performed on a Topcount luminescence detector (Packard, Meridien, Conn.).

HIV-1 IIIB = test: HOS HIV-1 infectivity assay; assay type: cell-based
Procedure, shortened: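 HOS hCXCR4/hCCR5/hCD4/pHIV-LTR-luc cells, DMEM 2% FCS, 24 h preculture; cpd 1 h pre-virus; HIV-1 (PBL-grown) ~2 million RLU/well; 96 h, 37 °C. Readout: Steady-Glo luciferase (infected), CellTiter-Glo (no virus).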

T-tropic HIV = conditions: patients dual tropic or with only T-tropic virus; cited from earlier work
[3] = Human immunodeficiency virus 1, IIIB, as determined by the infectivity assay, strain not stated in Table 2, read-out: Activity Level
[4] = Human immunodeficiency virus 1, T-tropic (CXCR4 utilizing) IIIB strain, HOS cells, 96 h, read-out: HOS (3B)

T1 sequence (P61073 whole entry): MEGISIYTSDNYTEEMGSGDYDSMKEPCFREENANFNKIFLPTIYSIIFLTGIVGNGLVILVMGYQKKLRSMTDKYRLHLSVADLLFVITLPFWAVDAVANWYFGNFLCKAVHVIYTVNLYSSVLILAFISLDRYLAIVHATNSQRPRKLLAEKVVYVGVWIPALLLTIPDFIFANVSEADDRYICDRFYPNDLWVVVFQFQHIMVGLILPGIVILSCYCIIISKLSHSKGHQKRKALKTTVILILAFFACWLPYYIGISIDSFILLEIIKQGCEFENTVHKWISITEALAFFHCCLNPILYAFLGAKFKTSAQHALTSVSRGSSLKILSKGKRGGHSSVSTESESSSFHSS

Structure (SMILES) | IC50 (CXCR4 receptor) [nM] | IC50 [1] [nM] | IC50 at 96 h [2] [nM] | IC50 (HIV-1 IIIB; [3]) [nM] | IC50 (HIV-1 IIIB; [4]) [nM] | T-tropic HIV viral load (T-tropic HIV)
CN(Cc1nc2ccccc2n1Cc1cccnc1)C1CCCc2cccnc21 (centres unmarked) [Example 3, N-Methyl-N-{[1-(3-pyridinylmethyl)-1H-benzimidazol-2-yl]methyl}-5,6,7,8-tetrahydro-8-quinolinamine] | 398 | 1780 | > 100000 | 500 to 10000 | 574 | –
CN(Cc1nc2ccccc2n1CCN1CCOCC1)C1CCCc2cccnc21 (centres unmarked) [Example 5, N-Methyl-N-({1-[2-(4-morpholinyl)ethyl]-1H-benzimidazol-2-yl}methyl)-5,6,7,8-tetrahydro-8-quinolinamine] | 123 | 200 | > 100000 | 100 to 500 | 225 | –
NCCCn1c(CN(Cc2ccccc2)C2CCCc3cccnc32)nc2ccccc21 (centres unmarked) [Example 21, N-{[1-(3-Aminopropyl)-1H-benzimidazol-2-yl]methyl}-N-(phenylmethyl)-5,6,7,8-tetrahydro-8-quinolinamine] | 288 | 1320 | > 100000 | 500 to 10000 | 595 | –
CN1CCOC(Cn2c(CN(C)C3CCCc4cccnc43)nc3ccccc32)C1 (centres unmarked) [Example 25, N-Methyl-N-({1-[(4-methyl-2-morpholinyl)methyl]-1H-benzimidazol-2-yl}methyl)-5,6,7,8-tetrahydro-8-quinolinamine] | 29.5 | 38 | > 100000 | 100 to 500 | 185 | –
CN1CCN(CCCn2c(CN(C)C3CCCc4cccnc43)nc3ccccc32)CC1 (centres unmarked) [Example 9, N-Methyl-N-({1-[3-(4-methyl-1-piperazinyl)propyl]-1H-benzimidazol-2-yl}methyl)-5,6,7,8-tetrahydro-8-quinolinamine] | 135 | 166 | > 100000 | < 100 | 93 | –
CN1CCCCC1CCn1c(CN(C)C2CCCc3cccnc32)nc2ccccc21 (centres unmarked) [Example 23e, N-Methyl-N-({1-[2-(1-methyl-2-piperidinyl)ethyl]-1H-benzimidazol-2-yl}methyl)-5,6,7,8-tetrahydro-8-quinolinamine] | 17.4 | 38 | > 100000 | < 100 | 33 | –
c1cc(CN2CCCNCCNCCCNCC2)ccc1CN1CCCNCCNCCCNCC1 [AMD-3100] | – | – | – | – | – | significantly reduce T-tropic HIV viral load
CN1CCC(Cn2c(CN(C)C3CCCc4cccnc43)nc3ccccc32)C1 (centres unmarked) [Example 8d, N-Methyl-N-({1-[(1-methyl-3-pyrrolidinyl)methyl]-1H-benzimidazol-2-yl}methyl)-5,6,7,8-tetrahydro-8-quinolinamine] | 74.1 | 74.1 | > 100000 | < 100 | 57 | –
CN1CCCC(Cn2c(CN(C)C3CCCc4cccnc43)nc3ccccc32)C1 (centres unmarked) [Example 7, N-Methyl-N-({1-[(1-methyl-3-piperidinyl)methyl]-1H-benzimidazol-2-yl}methyl)-5,6,7,8-tetrahydro-8-quinolinamine] | 8.13 | 20.9 | > 100000 | < 100 | 19 | –
CC(C)CCN(Cc1nc2ccccc2n1CCCN)C1CCCc2cccnc21 (centres unmarked) [Example 22, N-{[1-(3-Aminopropyl)-1H-benzimidazol-2-yl]methyl}-N-(3-methylbutyl)-5,6,7,8-tetrahydro-8-quinolinamine] | 56.2 | 158 | > 100000 | 100 to 500 | 113 | –
CN(Cc1nc2ccccc2n1CCCNCc1ccccn1)C1CCCc2cccnc21 (centres unmarked) [Example 16, N-Methyl-N-[(1-{3-[(2-pyridinylmethyl)amino]propyl}-1H-benzimidazol-2-yl)methyl]-5,6,7,8-tetrahydro-8-quinolinamine] | 58.9 | 148 | > 100000 | 100 to 500 | 121 | –
CN(C)C/C=C\Cn1c(CN(C)C2CCCc3cccnc32)nc2ccccc21 (centres unmarked) [Example 24, N-({1-[(2Z)-4-(Dimethylamino)-2-buten-1-yl]-1H-benzimidazol-2-yl}methyl)-N-methyl-5,6,7,8-tetrahydro-8-quinolinamine] | 15.5 | 20.4 | > 100000 | < 100 | 25 | –
